Assay results published in patent US20250115571A1, “OXOPIPERAZINE DERIVATIVES” (Inthera Bioscience AG, priority 2017, published 2025).

Key:
CaSki cells = assay: Colony Formation Assay (CFA), 14 days; type: cell-based; conditions: Homo sapiens, Ca-Ski, 336 h; for inhibition at 0.7 µM: colony formation assay, class by % inhibition at 0.7, 6 or 50 μM
Text: Cell culture: CaSki cells were obtained from CLS GmbH, Eppelheim, Germany (cat. 300145) and subcultured in ready-to-use RPMI1640 Media (CLS GmbH cat. 820700) after addition of “Antibiotic Antimycotic Solution” (Sigma-Aldrich, St Louis, USA, cat. A5955) at 1:100 dilution. CaSki cells were expanded and aliquots kept frozen in liquid nitrogen according to manufacturer's instructions. Once thawed, aliquots were passaged every second or third day at a seed density of 20′000 cells/cm^2; and used for a maximum of twenty passages.
Preparation of the cells for CFA: Cell culture flasks were rinsed twice with Ca++/Mg++-free Phosphate-Buffered Saline (DPBS, CLS GmbH cat. 860015) and incubated with Accutase (CLS GmbH cat. 830100) for 15 min at 37° C. Cells were resuspended in a four-fold volume of ready-to use RPMI, centrifuged at 300 g for 10 minutes, the supernatant discarded and the cells resuspended in ready-to-use RPMI1640 by pipetting up and down ten times with a serological pipette. Cell density was determined with a Via-1 Cassette (Chemometec, Allerod, Denmark) on a Nucleocounter NC 3000 (Chemometec). The required amount of cells was first diluted 1:10 in ready-to-use RPMI; cells pipetted five times up-down with a serological pipette; and the 1:10 solution added to the final volume needed for the whole assay setup. Cells were mixed again by pipetting up and down twenty times with a serological pipette. The final cell density was 70 cells/ml.
Seeding: Cells were seeded column-wise in 6-well plates, while triplicates were treated row-wise. Three ml cell suspension solution (210 cells) were added per well.
Treatment: Compound stock solutions were prepared at a concentration of 30 mM in 50% DMSO/50% water; and diluted in the same solution so that the volume added to the wells was of 5 μl and the final DMSO well concentration 0.08%. Untreated cells (negative controls) were incubated in a) medium only; and b) 0.08% DMSO. […] Tests showing less than 75% or more than 95% inhibition were repeated. The plates were swirled gently after addition of the compounds and the cells incubated for 14 days at 37° C. Culture incubation solutions were replaced after one week.
Staining: Colonies were washed twice with ice-cold DPBS and fixed on ice with 1 ml ice-cold 10% methanol solution for 30 min. The methanol solution was removed and colonies incubated with 0.1% Crystal Violet/DBPS for 20 min at room temperature. The wells were rinsed with water at room temperature, let dry and colonies were counted. Compounds e.g., compounds of Table 2 and 3 were classified as follows: […]

[1] = test system: HPV-positive head-and-neck squamous cell carcinoma model #HN11303; assay: Patient-derived xenograft mouse model for head-and-neck squamous cell carcinoma (HN11303); type: in vivo; conditions: subcutaneous HPV-positive HNSCC model, female NMRI nu/nu mice
Method: Female NMRI nu/nu mice were injected with cells derived from a human head-and-neck cancer (model #HN11303, an HPV-positive head-and-neck squamous cell carcinoma, EPO-GmbH, Berlin, Germany). The cells were inoculated subcutaneously into the left flank of 40 mice. Thirteen days later tumors reached a mean volume of approximately 107 mm^3, and mice were randomly assigned to five treatment groups of each eight mice (TABLE 23). Body weights were measured twice weekly. Tumor burden was assessed by caliper measurement twice weekly. Dosing breaks were applied when tolerability issues arose (body weight loss>10). The study was terminated five weeks post first dosing. The experiment was performed in the EPO animal testing facility (Experimental Pharmacology and Oncology GmbH, 13125 Berlin-Buch, Germany).

A549 = assay: 9-day colony survival assay (CFA); type: cell-based; conditions: Homo sapiens, 216 h, A549 (lung), read-out: GI50 (50% growth inhibition)
CaSki = assay: 9-day colony survival assay (CFA); type: cell-based; conditions: Homo sapiens, Ca-Ski, 216 h, CaSki (cervix), read-out: GI50 (50% growth inhibition)
Text: Cell culture. CaSki cells (cervical cancer) were obtained from CLS GmbH, Eppelheim, Germany (cat #300145) and subcultured in ready-to-use RPMI1640 Media (CLS #820700) after addition of “Antibiotic Antimycotic Solution” (Sigma-Aldrich, St Louis, USA) at 1:100 dilution. The cells were expanded, and aliquots kept frozen in liquid nitrogen according to manufacturer's instructions; tested for mycoplasma contamination and genotyped (Microsynth AG, Balgach, Switzerland). Once thawed, aliquots were passaged every second or third day at a seed density of 20′000 cells/cm^2; and used for a maximum of twenty passages. For passaging, cell culture flasks were rinsed twice with Ca++/Mg++-free Phosphate-Buffered Saline (DPBS, CLS #860015) and incubated with Accutase (CLS #830100) for 15 min at 37° C. Cells were resuspended in a four-fold volume of ready-to-use RPMI, centrifuged at 300 g for ten minutes, the supernatant discarded and the cells resuspended in ready-to-use RPMI1640 by pipetting up and down five times with a serological pipette. Cell density was determined with a Via-1 Cassette (Chemometec, Allerod, Denmark) on a Nucleocounter NC 3000 (Chemometec). Where not stated, consumables and chemicals were purchased from well-known suppliers.
Preparation of the cells for CFA. Cell culture flasks were rinsed twice with DPBS and incubated with Accutase for 15 min at 37° C. Cells were resuspended in a four-fold volume of ready-to use RPMI, centrifuged at 300 g for ten minutes, the supernatant discarded and the cells resuspended in ready-to-use RPMI1640 by pipetting up and down ten times with a serological pipette. Cell density was determined with a Via-1 Cassette on a Nucleocounter NC 3000. The required amount of cells was first diluted 1:10 in ready-to-use RPMI; cells pipetted five times up-down with a serological pipette; and the 1:10 solution added to the final volume needed for the whole assay setup. Cells were mixed again by pipetting up and down twenty times with a serological pipette. The cell density used for the experiment was of 140 cells/ml.
Seeding. Cells were seeded row-wise in 12-well plates, while triplicates were treated column-wise (i.e. all the first rows were seeded first, then the second rows, and finally the third rows). One and a half ml cell suspension solution (a total of 210 cells) were added per well.
Treatment. Compound stock solutions were prepared at a concentration of 30 mM in 50% DMSO/50% water; and diluted in the same solution so that the volume added to the wells was of 2.5 μl and the final DMSO well concentration of 0.08%. Untreated cells (negative controls) were incubated in a) medium only; and b) 0.08% DMSO. […] The plates were swirled gently after addition of the compounds and the cells incubated for nine days at 37° C. Culture incubation solutions were replaced after five days.
Staining. Colonies were washed twice with ice-cold DPBS and fixed on ice with 1 ml ice-cold 10% methanol solution for 30 min. The methanol solution was removed and colonies incubated with 0.1% Crystal Violet/DBPS for 20 min at room temperature. The wells were rinsed consecutively with 1.5, 1, and 0.5 ml water at room temperature and let dry.
Destaining and data evaluation. […] Absorbance was measured at 600 nm with a SpectraMax M2e reader (Molecular Devices, Sunnyvale, CA, USA). Percentage of colony formation was calculated from the average of the well triplicates compared to the untreated DMSO controls after subtraction of blank values. […]

PC3 = assay: 9-day colony survival assay (CFA); type: cell-based; conditions: Homo sapiens, PC-3, 216 h, PC3 (prostate), read-out: GI50 (50% growth inhibition)
HCT116 = assay: 9-day colony survival assay (CFA); type: cell-based; conditions: Homo sapiens, HCT-116, 216 h, HCT116 (colon), read-out: GI50 (50% growth inhibition)

CC(C)C[C@@H]1NCCN([C@@H](CC(C)C)C(=O)N2CCC(Cc3ncc[nH]3)CC2)C1=O [Compound 57, (S)-1-[(S)-1-({4-[(1H-Imidazol-2-yl)methyl]-1-piperidyl}carbonyl)-3-methylbutyl]-3-isobutyl-2-piperazinone]
inhibition at 10 µM (CaSki cells; 10 μM, reference compound standard treatment, 14 days): 80 to 90% | mean TV ([1]; day 13): 0.1073 cm^3 | mean TV ([1]; day 15): 0.1106 cm^3 | mean TV ([1]; day 18): 0.1166 cm^3 | mean TV ([1]; day 21): 0.1081 cm^3 | mean TV ([1]; day 25): 0.1233 cm^3 | mean TV ([1]; day 29): 0.1421 cm^3 | mean TV ([1]; day 33): 0.2009 cm^3 | mean TV ([1]; day 36): 0.1776 cm^3

CC(C)C[C@@H]1NCCN([C@H](C(=O)N2CCC(CC(N)=O)CC2)C(C)C)C1=O [Compound 90, (1-{(S)-2-[(S)-3-Isobutyl-2-oxo-1-piperazinyl]-3-methylbutyryl}-4-piperidyl)acetamide]
inhibition at 0.7 µM (CaSki cells): < 0%

CC(C)(C)C[C@@H](C(=O)N1CCC(CC(N)=O)CC1)N1CCN[C@@H](CC2CC2)C1=O [Compound 94, (1-{(S)-2-[(S)-3-(Cyclopropylmethyl)-2-oxo-1-piperazinyl]-4,4-dimethylvaleryl}-4-piperidyl)acetamide]
inhibition at 0.7 µM (CaSki cells): < 0%

CCCC[C@@H]1NCCN([C@@H](CC2CC2)C(=O)N2CCC(CC(N)=O)CC2)C1=O [Compound 106, (1-{(S)-2-[(S)-3-Butyl-2-oxo-1-piperazinyl]-3-cyclopropylpro-pionyl}-4-piperidyl)acetamide]
inhibition at 0.7 µM (CaSki cells): < 0%

CC(C)C[C@@H](C(=O)N1CCC(CC(N)=O)CC1)N1CCN[C@@H](CC(C)(C)C)C1=O [Compound 114, (1-{(S)-2-[(S)-3-Neopentyl-2-oxo-1-piperazinyl]-4-methylvaleryl}-4-piperidyl)acetamide]
inhibition at 0.7 µM (CaSki cells): < 0%

CC(C)C[C@@H]1NCCN([C@@H](CC(C)C)C(=O)N2CCC3(C[C@@H]2C)OCC(c2nccn2C)CO3)C1=O (stereo partly drawn) [Compound 260, (S)-1-[(S)-1-({(S)-8-Methyl-3-(1-methyl-1H-imidazol-2-yl)-1,5-dioxa-9-aza-9-spiro[5.5]un-decyl}carbonyl)-3-methylbutyl]-3-isobutyl-2-piperazinone]
inhibition at 0.7 µM (CaSki cells): < 0%

CC(C)C[C@@H]1NCCN([C@@H](CC(C)C)C(=O)N2CCC3(C[C@@H]2C)OCC(c2ccccn2)CO3)C1=O (stereo partly drawn) [Compound 285, (S)-1-[(S)-1-({(S)-8-Methyl-3-(2-pyridyl)-1,5-dioxa-9-aza-9-spiro[5.5]un-decyl}carbonyl)-3-methylbutyl]-3-isobutyl-2-piperazinone]
inhibition at 0.7 µM (CaSki cells): < 0%

CC(C)C[C@H]1C(=O)N([C@@H](CC(C)C)C(=O)N2CCC3(C[C@@H]2C)OCC(CN2CCCC2)CO3)CCN1C (stereo partly drawn) [Compound 287, (3S)-4-methyl-1-[(2S)-4-methyl-1-oxo-1-[(3s,6s,8S)-8-methyl-3-(pyrrolidin-1-ylmethyl)-1,5-dioxa-9-azaspiro[5.5]undec-an-9-yl]pentan-2-yl]-3-(2-methylpropyl)piper-azin-2-one (^≠), isomer Z]
GI50 (A549): 20 nM | GI50 (CaSki): 13 nM | GI50 (PC3): 7 nM | GI50 (HCT116): 1.5 nM

CC(C)C[C@@H]1NCCN([C@@H](CC(C)C)C(=O)N2CCC3(C[C@@H]2C)O[C@H]2C[C@@H](N(C)C)C[C@H]2O3)C1=O (stereo partly drawn) [Compound 292, (S)-1-[(S)-1-({(1R,5S,2′S)-7-(Dimethylamino)-2′-methylspiro[2.4-di-oxabicyclo[3.3.0]oc-tane-3,4′-piperidin]-1′-yl}carbonyl)-3-methylbutyl]-3-isobutyl-2-piperazinone]
inhibition at 0.7 µM (CaSki cells): < 0%

CC(C)C[C@@H]1NCCN([C@@H](CC(C)C)C(=O)N2CCC3(C[C@@H]2C)O[C@H]2CN(C)CC[C@H]2O3)C1=O (stereo partly shown) [Compound 296]
inhibition at 0.7 µM (CaSki cells): < 0%

CC(C)C[C@@H]1NCCN([C@@H](CC(C)C)C(=O)N2CCC3(C[C@@H]2C)OC2CN(C)C[C@@H]2O3)C1=O (stereo partly drawn) [Compound 300, (S)-1-[(S)-1-({(2′S)-7-Methyl-2′-methylspiro[2.4-dioxa-7-azabicyclo[3.3.0]oc-tane-3,4′-piperidin]-1′-yl}carbonyl)-3-methylbutyl]-3-isobutyl-2-piperazinone]
inhibition at 0.7 µM (CaSki cells): < 0%
